Reference: ChEMBL document CHEMBL4665887, “Identification, Structure-Activity Relationships of Marine-Derived Indolocarbazoles, and a Dual PKCθ/δ Inhibitor with Potent Antipancreatic Cancer Efficacy” (J Med Chem, 2020)

Biological target: Protein kinase C theta type (Homo sapiens, UniProt Q04759)
Assay: Inhibition of PKCtheta (unknown origin) by HTRF assay

Sequence of Protein kinase C theta type (Q04759 whole entry): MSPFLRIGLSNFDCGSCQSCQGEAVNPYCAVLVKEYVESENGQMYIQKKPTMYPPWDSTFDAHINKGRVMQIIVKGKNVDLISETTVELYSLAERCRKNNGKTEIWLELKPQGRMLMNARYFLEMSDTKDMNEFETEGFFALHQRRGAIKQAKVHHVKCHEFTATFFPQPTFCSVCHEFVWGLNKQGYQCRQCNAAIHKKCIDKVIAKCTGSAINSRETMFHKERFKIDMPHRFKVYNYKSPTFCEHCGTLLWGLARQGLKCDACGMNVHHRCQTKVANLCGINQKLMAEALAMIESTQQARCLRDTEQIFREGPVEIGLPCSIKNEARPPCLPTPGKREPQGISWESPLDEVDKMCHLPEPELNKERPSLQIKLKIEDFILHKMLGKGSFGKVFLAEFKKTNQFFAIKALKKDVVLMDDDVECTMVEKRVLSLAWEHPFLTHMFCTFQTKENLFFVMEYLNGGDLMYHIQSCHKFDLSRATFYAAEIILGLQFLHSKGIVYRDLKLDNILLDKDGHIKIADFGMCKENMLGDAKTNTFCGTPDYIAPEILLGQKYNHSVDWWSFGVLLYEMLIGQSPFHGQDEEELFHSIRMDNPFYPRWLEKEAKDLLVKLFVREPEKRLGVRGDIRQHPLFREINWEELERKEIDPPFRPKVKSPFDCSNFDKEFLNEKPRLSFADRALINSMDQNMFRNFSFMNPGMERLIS

In the case of `O=C1NC(O)c2c1c1c3ccccc3[nH]c1c1[nH]c3ccccc3c21` (configuration not stated), the IC50 is reported as greater than 2500 nM.
In the case of `C[C@@H]1O[C@@H](n2c3ccccc3c3c4c(c5c6ccccc6[nH]c5c32)CNC4=O)[C@H](O)[C@H](O)[C@H]1O`, the IC50 is reported as greater than 2500 nM.
In the case of `C[C@@H]1O[C@@H](n2c3ccccc3c3c4c(c5c6ccccc6[nH]c5c32)CNC4=O)C[C@@H](N)[C@H]1O`, the IC50 is reported as 260 nM.
For `CC(=O)N[C@@H]1C[C@H](n2c3ccccc3c3c4c(c5c6ccccc6[nH]c5c32)CNC4=O)O[C@@H](C)[C@@H]1O`, the IC50 was greater than 2500 nM.
Work on `CC(=O)N[C@H]1C[C@H]2O[C@@](C)([C@@H]1O)n1c3ccccc3c3c4c(c5c6ccccc6n2c5c31)C(=O)NC4` yielded an IC50 of 270 nM.
`CC(=O)N[C@@H]1C[C@H](n2c3ccccc3c3c4c(c5c6cc(O)ccc6[nH]c5c32)CNC4=O)O[C@@H](C)[C@@H]1O` gave an IC50 greater than 2500 nM.
Work on `C[C@H]1O[C@@H]2C[C@](O)([C@H]1O)n1c3ccccc3c3c4c(c5c6cc(O)ccc6n2c5c31)C(=O)NC4` yielded an IC50 greater than 2500 nM.
Work on `COC1NC(=O)c2c1c1c3ccccc3[nH]c1c1[nH]c3ccc(O)cc3c21` (configuration not stated) yielded an IC50 greater than 2500 nM.
Compound `O=C1NCc2c1c1c3ccccc3[nH]c1c1[nH]c3ccc(O)cc3c21` has an IC50 greater than 2500 nM.
`CC(=O)N[C@@H]1C[C@H](n2c3ccc(O)cc3c3c4c(c5c6ccccc6[nH]c5c32)CNC4=O)O[C@@H](C)[C@@H]1O` showed an IC50 of 280 nM.
Compound `C[C@@H]1O[C@@H](n2c3ccc(O)cc3c3c4c(c5c6ccccc6[nH]c5c32)CNC4=O)C[C@@H](N)[C@H]1O` has an IC50 greater than 2500 nM.
`C[C@@H]1O[C@@H]2C[C@](O)([C@H]1O)n1c3ccccc3c3c4c(c5c6cc(O)ccc6n2c5c31)C(=O)NC4` was tested, and the IC50 was greater than 2500 nM.
In the case of `O=C1NCc2c1c1c3cc(O)ccc3[nH]c1c1[nH]c3ccccc3c21`, the IC50 is reported as 2110 nM.
With `C[C@@H]1O[C@@H](n2c3ccccc3c3c4c(c5c6ccccc6[nH]c5c32)C(=O)NC4=O)[C@H](O)[C@H](O)[C@H]1O` the IC50 was greater than 2500 nM.
`C[C@@H]1O[C@@H](n2c3ccccc3c3c4c(c5c6ccccc6[nH]c5c32)CNC4=O)C[C@@H](NC=O)[C@H]1O` gave an IC50 greater than 2500 nM.
`CO[C@@H]1[C@H](N(C)C=O)C[C@H]2O[C@]1(C)n1c3ccccc3c3c4c(c5c6ccccc6n2c5c31)C(=O)NC4` showed an IC50 of 250 nM.
Work on `C[C@@H]1O[C@@H](n2c3ccc(O)cc3c3c4c(c5c6ccccc6[nH]c5c32)CNC4=O)[C@H](O)[C@H](O)[C@H]1O` yielded an IC50 greater than 2500 nM.
Compound `CO[C@H]1NC(=O)c2c1c1c3ccccc3[nH]c1c1c2c2ccccc2n1[C@@H]1O[C@@H](C)[C@H](O)[C@@H](O)[C@H]1O` has an IC50 greater than 2500 nM.
In the case of `CO[C@H]1NC(=O)c2c1c1c3ccccc3n3c1c1c2c2ccccc2n1[C@@H]1O[C@@]3(C)[C@H](OC)[C@@H](O)[C@H]1O`, the IC50 is reported as 890 nM.
Work on `CNn1c2ccccc2c2c3c(c4c5ccccc5[nH]c4c21)C(=O)NC3` yielded an IC50 greater than 2500 nM.
Compound `CO[C@@H]1[C@H](NC=O)C[C@H]2O[C@]1(C)n1c3ccccc3c3c4c(c5c6ccccc6n2c5c31)C(=O)NC4` has an IC50 greater than 2500 nM.
For `CO[C@@H]1C(=O)C[C@H]2O[C@]1(C)n1c3ccccc3c3c4c(c5c6ccccc6n2c5c31)C(=O)NC4`, the IC50 was greater than 2500 nM.
`C[C@@H]1O[C@@H](n2c3ccccc3c3c4c(c5c6ccccc6[nH]c5c32)C(=O)NC4=O)C[C@@H](NC=O)[C@H]1O` gave an IC50 of 4760 nM.
`CO[C@@H]1[C@H](N)C[C@H]2O[C@]1(C)n1c3ccccc3c3c4c(c5c6ccccc6n2c5c31)C(=O)NC4=O` gave an IC50 of 36 nM.
`CO[C@H]1[C@@H](N2CC[C@@H](O)C2=O)C[C@@H]2O[C@@]1(C)n1c3ccccc3c3c4c(c5c6ccccc6n2c5c31)C(=O)NC4` showed an IC50 of 170 nM.
`C[C@@H]1O[C@@H](n2c3ccccc3c3c4c(c5c6ccccc6[nH]c5c32)C(=O)NC4=O)C[C@@H](N)[C@H]1O` showed an IC50 of 1180 nM.
`CO[C@@H]1[C@@H](O)[C@@H](O)[C@H]2O[C@]1(C)n1c3ccccc3c3c4c(c5c6ccccc6n2c5c31)C(=O)NC4=O` gave an IC50 of 1420 nM.
With `CO[C@@H]1[C@H](NC(C)=O)C[C@H]2O[C@]1(C)n1c3ccccc3c3c4c(c5c6ccccc6n2c5c31)C(=O)NC4` the IC50 was 38 nM.
Compound `CO[C@@H]1[C@H](NC(=O)C(=O)c2c[nH]c3ccccc23)C[C@H]2O[C@]1(C)n1c3ccccc3c3c4c(c5c6ccccc6n2c5c31)C(=O)NC4` has an IC50 of 1790 nM.
`CC(=O)N[C@@H]1C[C@H](n2c3ccccc3c3c4c(c5c6ccccc6[nH]c5c32)C(=O)NC4=O)O[C@@H](C)[C@@H]1O` was tested, and the IC50 was greater than 2500 nM.
With `C[C@@H]1O[C@@H]2C[C@](O)([C@H]1O)n1c3ccccc3c3c4c(c5c6ccccc6n2c5c31)C(=O)NC4` the IC50 was 1910 nM.
Work on `COc1cc(/C=C(/C(N)=O)n2c3ccccc3c3c4c(c5c6ccccc6[nH]c5c32)CNC4=O)ccc1O` yielded an IC50 greater than 2500 nM.
Work on `CO[C@@H]1/C(=N/O)C[C@H]2O[C@]1(C)n1c3ccccc3c3c4c(c5c6ccccc6n2c5c31)C(=O)NC4` yielded an IC50 greater than 2500 nM.
`CO[C@@H]1[C@@H](O)[C@@H](O)[C@H]2O[C@]1(C)n1c3ccccc3c3c4c(c5c6ccccc6n2c5c31)C(=O)N[C@H]4O` gave an IC50 of 2250 nM.
Compound `CO[C@@H]1[C@@H](O)[C@@H](O)[C@H]2O[C@]1(C)n1c3ccccc3c3c4c(c5c6ccccc6n2c5c31)C(=O)NC4` has an IC50 of 1010 nM.
With `CO[C@@H]1[C@H](O)C[C@H]2O[C@]1(C)n1c3ccccc3c3c4c(c5c6ccccc6n2c5c31)C(=O)NC4` the IC50 was 1300 nM.
For `C[C@]12O[C@H](C[C@@H](O)[C@H]1O)n1c3ccccc3c3c4c(c5c6ccccc6n2c5c31)CNC4=O`, the IC50 was 600 nM.
For `CO[C@@H]1[C@@H](O)C[C@H]2O[C@]1(C)n1c3ccccc3c3c4c(c5c6ccccc6n2c5c31)C(=O)NC4`, the IC50 was 480 nM.
`CO[C@@H]1[C@H](N(C)C(C)=O)C[C@H]2O[C@]1(C)n1c3ccccc3c3c4c(c5c6ccccc6n2c5c31)C(=O)NC4` gave an IC50 of 170 nM.
`CO[C@@H]1[C@@H](O)[C@@H](O)[C@H]2O[C@]1(C)n1c3ccccc3c3c4c(c5c6ccccc6n2c5c31)C(=O)N[C@@H]4O` gave an IC50 greater than 2500 nM.
`CO[C@@H]1[C@H](N(C)C(C)=O)C[C@H]2O[C@]1(C)n1c3ccccc3c3c4c(c5c6ccccc6n2c5c31)C(=O)NC4=O` gave an IC50 of 50 nM.
Work on `CC(=O)N[C@H]1C[C@H](n2c3ccccc3c3c4c(c5c6ccccc6[nH]c5c32)CNC4=O)O[C@@H](C)[C@@H]1O` yielded an IC50 of 1050 nM.
With `C[C@@H]1O[C@@H](n2c3ccccc3c3c4c(c5c6ccccc6[nH]c5c32)[C@H](O)NC4=O)[C@H](O)[C@H](O)[C@H]1O` the IC50 was greater than 2500 nM.
Work on `CN1Cc2c(c3c4ccccc4[nH]c3c3[nH]c4ccccc4c23)C1=O` yielded an IC50 greater than 2500 nM.
Work on `C[C@H]1NC(=O)c2c1c1c3ccccc3[nH]c1c1[nH]c3ccccc3c21` yielded an IC50 greater than 2500 nM.
In the case of `C[C@H]1O[C@@H]2C[C@](O)([C@@H]1O)n1c3ccccc3c3c4c(c5c6ccccc6n2c5c31)C(=O)NC4`, the IC50 is reported as greater than 2500 nM.
In the case of `CO[C@H]1C(=O)C[C@H]2O[C@]1(C)n1c3ccccc3c3c4c(c5c6ccccc6n2c5c31)C(=O)NC4`, the IC50 is reported as 560 nM.
With `CO[C@@H]1[C@H](N(C)C(N)=O)C[C@H]2O[C@]1(C)n1c3ccccc3c3c4c(c5c6ccccc6n2c5c31)C(=O)NC4` the IC50 was 400 nM.
`CO[C@@H]1[C@H](O)[C@H](O)[C@H](C)O[C@H]1n1c2ccccc2c2c3c(c4c5ccccc5[nH]c4c21)CNC3=O` showed an IC50 of 9430 nM.
For `C[C@@H]1O[C@@H](n2c3ccccc3c3c4c(c5c6ccccc6[nH]c5c32)CNC4=O)C[C@@H](N)[C@H]1OC(O)C1CO1` (some centres not stated), the IC50 was 5750 nM.
Work on `CO[C@@H]1[C@@H](O)[C@@H](O)[C@H]2O[C@]1(C)n1c3ccccc3c3c4c(c5c6ccccc6n2c5c31)C(=O)N[C@H]4OC` yielded an IC50 greater than 2500 nM.
With `COC1NC(=O)c2c1c1c3ccccc3[nH]c1c1[nH]c3ccccc3c21` (configuration not stated) the IC50 was greater than 2500 nM.
